Assay results reported in patent US20120172453A1, “METHODS FOR TREATING NEURODEGENERATIVE DISEASES” (Coyote Pharmaceuticals, Inc., priority 2010, published 2012).

How the values were obtained:
[1] = system: Mouse Neuro2A neuroblastoma cells; test: Neuro2A cells with neurites counted after retinoic acid differentiation and GGTI-298; assay type: cell-based
Procedure: Mouse Neuro2A neuroblastoma cells were cultured in DMEM supplemented with 10% FBS for 24 hrs. […] Then differentiation was induced by retinoic acid in DMEM supplemented with 2% FBS. An inhibitor against a G-protein, GGTI-298, was incubated. After 24 hrs incubation, cells with neurites were counted.

[2] = system: Rat primary motor neurons; test: axon extension of rat primary motor neurons; assay type: cell-based; conditions: Neuron, cells extending axons counted after 72 hrs, values in parenthesis, read-out: reasonable range expected for the EC50
Procedure: Rat primary motor neurons were isolated from embryonic spinal cords in accordance with the method of Henderson et al.; J Cohen and G P Wilkin (ed.), Neural Cell Culture, (1995) p69-81 which is herein incorporated by reference in its entirety. Briefly, spinal cords were dissected from day 15 embryo (E15) and incubated in a trypsin solution, and followed by DNase treatment to release spinal cord cells from tissue fragments. The cell suspension was centrifuged to remove tissue fragments. Then motor neurons were enriched by density gradient centrifugation.
Motor neurons were cultured in serum-free neurobasal medium containing insulin, forskolin, 3-isobutyl-1-methylxanthine, neurotrophic factors, Bovine serum albumin, selenium, transferrin, putrescine, progesterone and B27 supplement in tissue culture plate coated with poly-ornithine and laminin.
Rat primary motor neurons were prepared and cultured as described Example 11. […] The cells extending axons were counted in five different fields for each treatment after 72 hrs. Percentage of positive cells relative to total cells in the same magnification field was calculated and the results were expressed as means+/− standard deviations, n=5.

Row | EC50 [2] [nM] | SMILES | effect of a large quantity on viability of neuroblastoma cells [1]
1 | 8 to 12 | CC(=O)CC/C=C(/C)CC/C=C(\C)CC/C=C(\C)CCC=C(C)C [CNS-103, 5Z,9E,13E-Geranylgeranyl acetone] | inhibited viability of neuroblastoma cells
2 | 0.5 to 2 | CC(=O)CC/C=C(\C)CC/C=C(\C)CC/C=C(\C)CCC=C(C)C [CNS-102, 5E,9E,13E-Geranylgeranyl acetone] | –
